In PubChem BioAssay AID651650 (Sanford-Burnham Center for Chemical Genomics, 2012):
Calls of active or inactive are those of the source.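 The calls were made as follows: active = mean IC50 below 20 µM in each of the two panels, so potent in both; inactive = the rest.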

Target: Neuropilin-1 (Homo sapiens) (UniProt O14786)
Assay: blockers of CendR peptide binding to NRP-1 – biochemical, FP and AlphaScreen panel, dose response (AID 651650)
Conditions: NRP-1 b1b2 / RPARPAR peptide binding, FP or AlphaScreen
[1] = AlphaScreen, run 1, individual panel run IC50
[2] = FP, run 1, individual panel run IC50
[3] = FP, run 2, individual panel run IC50

Chain of Neuropilin-1 (Homo sapiens) (O14786 whole entry, looked up): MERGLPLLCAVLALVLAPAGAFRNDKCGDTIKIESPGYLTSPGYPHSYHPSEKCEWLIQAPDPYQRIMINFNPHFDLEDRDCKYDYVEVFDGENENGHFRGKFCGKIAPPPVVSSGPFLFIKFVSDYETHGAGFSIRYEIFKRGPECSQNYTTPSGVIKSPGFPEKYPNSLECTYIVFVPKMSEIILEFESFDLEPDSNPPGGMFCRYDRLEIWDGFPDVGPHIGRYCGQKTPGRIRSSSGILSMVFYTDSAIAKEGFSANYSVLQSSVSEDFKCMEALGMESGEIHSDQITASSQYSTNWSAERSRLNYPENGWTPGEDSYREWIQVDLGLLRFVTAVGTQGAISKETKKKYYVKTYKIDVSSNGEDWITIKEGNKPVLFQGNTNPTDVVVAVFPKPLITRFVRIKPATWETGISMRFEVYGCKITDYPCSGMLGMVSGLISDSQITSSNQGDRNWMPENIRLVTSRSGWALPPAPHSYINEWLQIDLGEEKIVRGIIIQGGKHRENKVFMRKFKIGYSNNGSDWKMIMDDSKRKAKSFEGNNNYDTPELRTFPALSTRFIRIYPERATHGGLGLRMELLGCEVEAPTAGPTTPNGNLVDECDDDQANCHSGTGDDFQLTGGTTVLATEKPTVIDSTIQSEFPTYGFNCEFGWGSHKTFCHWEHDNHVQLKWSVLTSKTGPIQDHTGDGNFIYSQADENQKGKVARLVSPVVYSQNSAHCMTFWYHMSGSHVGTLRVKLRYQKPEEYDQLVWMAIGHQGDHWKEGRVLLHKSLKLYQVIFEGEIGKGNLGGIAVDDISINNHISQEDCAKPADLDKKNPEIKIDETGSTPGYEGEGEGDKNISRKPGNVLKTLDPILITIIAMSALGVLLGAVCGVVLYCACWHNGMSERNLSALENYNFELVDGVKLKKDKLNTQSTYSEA

Structure (SMILES) | IC50 (AlphaScreen, mean of runs) | IC50 [1] | IC50 (FP, mean of runs) | IC50 [2] | IC50 [3]
Cc1nc2c(OCCC3CCCCC3)cccn2c1N(C)C(=O)CCC1CCCC1 | > 100 µM (inactive) | > 100 µM | > 95 µM (inactive) | > 95 µM | > 95 µM
CC(=NN(Cc1ccccc1)c1ccccc1)c1ccccc1 | inactive | 41.3 µM | > 95 µM (inactive) | > 95 µM | > 95 µM
O=C(NCCCN1CCCCCC1)c1ccc(CS(=O)(=O)Cc2ccccc2F)o1 | > 100 µM (inactive) | > 100 µM | > 95 µM (inactive) | > 95 µM | > 95 µM
C=C1C[C@@]23CCC4[C@@](C)(CCC[C@@]4(C)C(=O)O)C2CC[C@]1(O)C3 (stereo not given in full) | > 100 µM (inactive) | > 100 µM | > 95 µM (inactive) | > 95 µM | > 95 µM
CCc1cc(C(=O)OC)c(NC(=O)c2ccoc2C)s1 | > 100 µM (inactive) | > 100 µM | > 95 µM (inactive) | > 95 µM | > 95 µM
O=C1CCN(Cc2ccccc2)S(=O)(=O)c2ccccc21 | > 100 µM (inactive) | > 100 µM | > 95 µM (inactive) | > 95 µM | > 95 µM
O=C(Nc1cccc2c1CCCC2)c1cc(C2CCCCN2C(=O)CCCc2ccccc2)on1 (stereo not given) | > 100 µM (inactive) | > 100 µM | > 95 µM (inactive) | > 95 µM | > 95 µM
Nc1ncnc2[nH]c(=S)[nH]c12 | > 100 µM (inactive) | > 100 µM | > 95 µM (inactive) | > 95 µM | > 95 µM
CC(/C=C/c1ccccc1)=N\NC(=O)CCc1ccccc1 | > 100 µM (inactive) | > 100 µM | > 95 µM (inactive) | > 95 µM | > 95 µM
O=C(/C=C/c1ccco1)N/C(=C\c1ccccc1)C(=O)NCCc1nc2ccccc2[nH]1 | > 100 µM (inactive) | > 100 µM | > 95 µM (inactive) | > 95 µM | > 95 µM
CCCS(=O)(=O)N1CCC(Cc2ccc(OC)cc2)(C(=O)OCC)CC1 | > 100 µM (inactive) | > 100 µM | > 95 µM (inactive) | > 95 µM | > 95 µM
CCC1CCCCN1C(=S)Nc1ccc(OC(F)F)cc1 (stereo not given) | inactive | 32.8 µM | > 95 µM (inactive) | > 95 µM | > 95 µM
COc1ccc(Cl)cc1NC(=O)C(C)N1CCc2ccccc21 (stereo not given) | inactive | 45.6 µM | inactive | 50 µM | 30.3 µM
COCc1cccc(-c2csc(C(C)(O)c3ccccc3)n2)c1 (stereo not given) | > 100 µM (inactive) | > 100 µM | > 95 µM (inactive) | > 95 µM | > 95 µM
CN(c1ccccc1)S(=O)(=O)c1cccc(NC(=O)CSc2nncn2C)c1 | > 100 µM (inactive) | > 100 µM | > 95 µM (inactive) | > 95 µM | > 95 µM
COc1ccc(/C=N/NC(=O)c2nn(-c3ccc(Cl)cc3)c(=O)c3c(N)scc23)cc1 | > 100 µM (inactive) | > 100 µM | > 95 µM (inactive) | > 95 µM | > 95 µM
O=C(O/N=C1/CCSc2ccccc21)c1ccccc1 | > 100 µM (inactive) | > 100 µM | > 95 µM (inactive) | > 95 µM | > 95 µM
CC(=O)Nc1ccc(NC(=O)C2CC(=O)N=C(N)S2)cc1 (stereo not given) | > 100 µM (inactive) | > 100 µM | > 95 µM (inactive) | > 95 µM | > 95 µM
CCN(c1ccccc1)S(=O)(=O)c1ccc(C(=O)N(CCCN(C)C)c2nc3cc4c(cc3s2)OCO4)cc1 | inactive | 37.1 µM | > 95 µM (inactive) | > 95 µM | > 95 µM
Cc1ccc(C(=O)O)cc1NC(=O)Nc1cccc2ccccc12 | > 100 µM (inactive) | > 100 µM | > 95 µM (inactive) | > 95 µM | > 95 µM
CCOC(=O)[C@@H]1[C@H]2COc3ccccc3[C@@H]2N2C(=O)N(c3ccc(Cl)cc3)C(=O)[C@]12C | 7.51 µM | 7.51 µM | > 95 µM (inactive) | > 95 µM | > 95 µM
CC(=O)Oc1cc2c(c3ccccc13)CCC2=O | > 100 µM (inactive) | > 100 µM | > 95 µM (inactive) | > 95 µM | > 95 µM
Cn1c(=O)c2[nH]c(COc3ccccc3)nc2n(C)c1=O | > 100 µM (inactive) | > 100 µM | > 95 µM (inactive) | > 95 µM | > 95 µM

Structure (SMILES) | IC50 (AlphaScreen, mean of runs) | IC50 [1] | IC50 (FP, mean of runs) | IC50 [2] | IC50 [3]
CC(C)(C)N(NC(=O)Nc1ccc(Cl)cc1)C(=O)c1ccccc1 | > 100 µM (inactive) | > 100 µM | > 95 µM (inactive) | > 95 µM | > 95 µM
C[C@@H](C(=O)Nc1cccnc1)n1c(=O)[nH]c2ccccc2c1=O | > 100 µM (inactive) | > 100 µM | > 95 µM (inactive) | > 95 µM | > 95 µM
O=C(COC(=O)C1CC(=O)N(Cc2ccccc2)C1)Nc1ccccc1F (stereo not given) | inactive | 44.6 µM | > 95 µM (inactive) | > 95 µM | > 95 µM
COC(=O)[C@@]1(Cc2ccc(OC)cc2)[C@H]2c3cc(C(=O)N4CCCC4)n(CCN4CCOCC4)c3C[C@H]2CN1C(=O)c1ccccc1 | > 100 µM (inactive) | > 100 µM | > 95 µM (inactive) | > 95 µM | > 95 µM
CCN(CC(=O)NCc1cccs1)S(=O)(=O)c1ccc(C(C)C)cc1 | > 100 µM (inactive) | > 100 µM | > 95 µM (inactive) | > 95 µM | > 95 µM
CC(C)Cc1ccc(C(C)C(=O)Nc2ccc(O)cc2)cc1 (stereo not given) | > 100 µM (inactive) | > 100 µM | > 95 µM (inactive) | > 95 µM | > 95 µM
CCOc1ccccc1C1CC(=O)NC2=C1C(=O)CC(C)(C)C2 (stereo not given) | > 100 µM (inactive) | > 100 µM | > 95 µM (inactive) | > 95 µM | > 95 µM
CC(=O)OC1CC[C@]2(C#N)[C@H]3CC[C@]4(C)[C@H](C5C=CC(=O)O5)CCC4(O)C3CCC2(O)C1 (stereo not given in full) | > 100 µM (inactive) | > 100 µM | > 95 µM (inactive) | > 95 µM | > 95 µM
Cc1ccc2cc(CN(c3ccccc3C)S(=O)(=O)c3ccccc3)c(=O)[nH]c2c1 | > 100 µM (inactive) | > 100 µM | > 95 µM (inactive) | > 95 µM | > 95 µM
Cc1ccc(C(=O)Nc2ccccc2-c2ccccc2)cc1S(=O)(=O)Nc1ccccc1 | > 100 µM (inactive) | > 100 µM | > 95 µM (inactive) | > 95 µM | > 95 µM
CCNC(=O)C1(C)CCCN(C(=O)c2nc(C)oc2C)C1 (stereo not given) | > 100 µM (inactive) | > 100 µM | > 95 µM (inactive) | > 95 µM | > 95 µM
CC(C)(C)c1nc(SCC(=O)NCc2ccco2)c2ccccc2n1 | inactive | 28 µM | > 95 µM (inactive) | > 95 µM | > 95 µM
Cc1c(CC(=O)O)c(=O)oc2cc(OCc3ccc(F)cc3Cl)ccc12 | > 100 µM (inactive) | > 100 µM | > 95 µM (inactive) | > 95 µM | > 95 µM
COc1ccc(CCNC(=O)c2c(O)c3cccc4c3n(c2=O)CC4)cc1OC | > 100 µM (inactive) | > 100 µM | > 95 µM (inactive) | > 95 µM | > 95 µM
CCCN(C(=O)Cn1c(C(F)(F)F)nc2ccccc21)C1CCS(=O)(=O)C1 (stereo not given) | 11.2 µM | 11.2 µM | > 95 µM (inactive) | > 95 µM | > 95 µM
CCCCC1CCC(C(=O)NC2CCS(=O)(=O)C2)CC1 (stereo not given) | > 100 µM (inactive) | > 100 µM | > 95 µM (inactive) | > 95 µM | > 95 µM
C/C(=N\NC(=O)c1cc(O)ccc1O)c1cccc(NC(=O)c2cccc(Cl)c2)c1 | > 100 µM (inactive) | > 100 µM | > 95 µM (inactive) | > 95 µM | > 95 µM
COc1ccccc1COc1ccc2c(C)c(CC(=O)O)c(=O)oc2c1C | > 100 µM (inactive) | > 100 µM | > 95 µM (inactive) | > 95 µM | > 95 µM
CCOC(=O)N1CCN(C(=O)c2cc(COc3ccc(OC)cc3Cl)on2)CC1 | > 100 µM (inactive) | > 100 µM | > 95 µM (inactive) | > 95 µM | > 95 µM
COc1cc(Cn2nnc3ccccc32)cc(Br)c1O | > 100 µM (inactive) | > 100 µM | > 95 µM (inactive) | > 95 µM | > 95 µM
Cc1c(NP(=O)(C(C)(C)C)C(C)(C)C)c(=O)n(-c2ccccc2)n1C | > 100 µM (inactive) | > 100 µM | > 95 µM (inactive) | > 95 µM | > 95 µM
CCOC(=O)C1CCN(Cc2ccc3ccccc3c2)CC1 | > 100 µM (inactive) | > 100 µM | > 95 µM (inactive) | > 95 µM | > 95 µM
